Experiments:
[1] = target: T1, Alpha-2A adrenergic receptor (Homo sapiens, UniProt P08913); type: cell membranes, Sf9, Membrane; settings: sf9; note: in other assays of this panel Not Active means under 50% inhibition at 10 µM
T1 sequence (P08913 whole entry): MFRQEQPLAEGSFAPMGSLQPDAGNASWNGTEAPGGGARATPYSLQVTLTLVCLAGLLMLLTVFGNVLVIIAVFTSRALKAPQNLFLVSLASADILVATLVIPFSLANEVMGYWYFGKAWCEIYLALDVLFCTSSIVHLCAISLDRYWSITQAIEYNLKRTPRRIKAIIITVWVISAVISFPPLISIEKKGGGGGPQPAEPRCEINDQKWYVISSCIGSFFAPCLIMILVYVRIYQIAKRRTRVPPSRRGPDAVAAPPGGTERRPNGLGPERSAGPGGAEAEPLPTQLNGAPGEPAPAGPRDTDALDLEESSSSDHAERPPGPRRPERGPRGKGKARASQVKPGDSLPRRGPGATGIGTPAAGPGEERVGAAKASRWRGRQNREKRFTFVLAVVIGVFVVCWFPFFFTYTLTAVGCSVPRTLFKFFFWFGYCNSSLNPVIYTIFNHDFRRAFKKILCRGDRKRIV

[2] = target: T2, Alpha-2C adrenergic receptor (Homo sapiens, UniProt P18825); assay: DRUGMATRIX: Adrenergic Alpha-2C radioligand binding (ligand: [3H] MK-912); type: cell membranes, Sf9, Membrane; settings: sf9; note: call rule not given here
T2 sequence (P18825 whole entry): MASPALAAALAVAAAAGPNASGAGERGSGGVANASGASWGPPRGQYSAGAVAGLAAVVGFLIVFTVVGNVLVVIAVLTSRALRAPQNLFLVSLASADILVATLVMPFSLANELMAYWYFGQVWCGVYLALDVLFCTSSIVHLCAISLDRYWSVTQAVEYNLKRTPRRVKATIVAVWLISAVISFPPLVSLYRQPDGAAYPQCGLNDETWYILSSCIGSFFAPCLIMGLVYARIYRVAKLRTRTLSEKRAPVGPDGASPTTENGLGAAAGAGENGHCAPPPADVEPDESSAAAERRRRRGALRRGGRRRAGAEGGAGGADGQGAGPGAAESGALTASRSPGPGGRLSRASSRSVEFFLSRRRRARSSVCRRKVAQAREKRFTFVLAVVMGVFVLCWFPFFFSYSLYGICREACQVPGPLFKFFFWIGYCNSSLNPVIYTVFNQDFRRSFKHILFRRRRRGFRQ

[3] = target: Aldo-keto reductase family 1 member B1 (Rattus norvegicus, UniProt P07943); assay: biochemical; type: tissue-based, Lens of camera-type eye;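 note: inhibition of aldose reductase enzyme activity, measured with DL-glyceraldehyde as the substrate; in other assays of this panel Not Active means under 50% inhibition at 10 µM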
D(3) dopamine receptor = D(3) dopamine receptor (Homo sapiens, UniProt P35462); assay: DRUGMATRIX: Dopamine D3 radioligand binding (ligand: [3H] Spiperone); type: cell membranes, CHO, Membrane; settings: cho
D(3) dopamine receptor, sequence (P35462 whole entry): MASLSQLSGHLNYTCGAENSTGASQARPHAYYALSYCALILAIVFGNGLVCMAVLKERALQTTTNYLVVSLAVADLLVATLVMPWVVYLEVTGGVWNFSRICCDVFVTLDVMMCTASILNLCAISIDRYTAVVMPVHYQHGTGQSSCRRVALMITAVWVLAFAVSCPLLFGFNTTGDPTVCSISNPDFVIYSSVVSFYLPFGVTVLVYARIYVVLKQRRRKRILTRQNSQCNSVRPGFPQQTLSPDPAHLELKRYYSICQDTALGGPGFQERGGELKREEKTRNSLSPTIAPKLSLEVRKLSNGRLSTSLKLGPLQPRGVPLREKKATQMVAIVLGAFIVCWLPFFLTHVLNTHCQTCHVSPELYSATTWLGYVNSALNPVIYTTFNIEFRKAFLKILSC

Melanocortin receptor 4 = Melanocortin receptor 4 (Homo sapiens, UniProt P32245); type: cell membranes, Membrane; settings: hek293; note: in other assays of this panel Not Active means under 50% inhibition at 10 µM
Melanocortin receptor 4, sequence (P32245 whole entry): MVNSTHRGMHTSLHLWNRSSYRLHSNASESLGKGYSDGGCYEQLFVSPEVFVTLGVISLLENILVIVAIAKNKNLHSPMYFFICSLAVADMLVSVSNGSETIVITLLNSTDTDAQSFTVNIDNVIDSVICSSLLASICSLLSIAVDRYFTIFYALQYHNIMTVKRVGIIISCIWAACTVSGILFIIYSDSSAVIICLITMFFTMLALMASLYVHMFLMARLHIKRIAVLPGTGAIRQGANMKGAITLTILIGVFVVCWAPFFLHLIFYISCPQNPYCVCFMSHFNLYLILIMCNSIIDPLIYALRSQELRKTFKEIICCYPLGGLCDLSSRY

Cathepsin G = target: T3, Cathepsin G (Homo sapiens, UniProt P08311); type: tissue-based; settings: neutrophil;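 note: inhibition of Cathepsin G enzyme activity, tested on an AMC-conjugated peptide substrate; in other assays of this panel Not Active means under 50% inhibition at 10 µM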
T3 sequence (P08311 whole entry): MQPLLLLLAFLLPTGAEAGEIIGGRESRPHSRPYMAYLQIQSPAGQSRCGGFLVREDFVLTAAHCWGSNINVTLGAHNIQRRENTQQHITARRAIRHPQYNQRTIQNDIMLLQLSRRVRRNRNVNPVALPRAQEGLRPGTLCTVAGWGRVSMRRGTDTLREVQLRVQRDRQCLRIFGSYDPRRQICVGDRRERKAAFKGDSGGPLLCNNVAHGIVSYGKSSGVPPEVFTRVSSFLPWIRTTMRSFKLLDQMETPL

[4] = target: Matrix metalloproteinase-9 (Homo sapiens, UniProt P14780); assay: biochemical; type: cell-based
Matrix metalloproteinase-9, sequence (P14780 whole entry): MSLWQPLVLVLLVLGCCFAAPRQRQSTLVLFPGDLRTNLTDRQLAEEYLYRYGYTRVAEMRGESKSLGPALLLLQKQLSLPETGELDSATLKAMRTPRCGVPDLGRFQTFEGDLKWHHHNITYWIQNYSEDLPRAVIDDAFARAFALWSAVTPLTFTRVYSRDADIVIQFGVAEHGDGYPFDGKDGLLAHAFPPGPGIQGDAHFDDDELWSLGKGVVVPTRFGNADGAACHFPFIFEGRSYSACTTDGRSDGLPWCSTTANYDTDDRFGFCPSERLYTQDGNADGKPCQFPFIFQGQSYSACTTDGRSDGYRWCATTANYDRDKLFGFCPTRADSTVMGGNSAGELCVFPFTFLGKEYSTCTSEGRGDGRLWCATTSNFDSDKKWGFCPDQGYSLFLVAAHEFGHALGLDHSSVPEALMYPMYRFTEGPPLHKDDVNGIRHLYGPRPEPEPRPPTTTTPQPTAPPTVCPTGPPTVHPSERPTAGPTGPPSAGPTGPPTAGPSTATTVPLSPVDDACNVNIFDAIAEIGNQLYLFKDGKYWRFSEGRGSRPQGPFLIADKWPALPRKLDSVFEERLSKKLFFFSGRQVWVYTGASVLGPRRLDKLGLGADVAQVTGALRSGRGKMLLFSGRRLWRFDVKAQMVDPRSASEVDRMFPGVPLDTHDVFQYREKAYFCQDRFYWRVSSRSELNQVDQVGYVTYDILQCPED

[5] = target: T4, Receptor-type tyrosine-protein phosphatase C (Homo sapiens, UniProt P08575); design: species or system Escherichia coli
T4 sequence (P08575 whole entry): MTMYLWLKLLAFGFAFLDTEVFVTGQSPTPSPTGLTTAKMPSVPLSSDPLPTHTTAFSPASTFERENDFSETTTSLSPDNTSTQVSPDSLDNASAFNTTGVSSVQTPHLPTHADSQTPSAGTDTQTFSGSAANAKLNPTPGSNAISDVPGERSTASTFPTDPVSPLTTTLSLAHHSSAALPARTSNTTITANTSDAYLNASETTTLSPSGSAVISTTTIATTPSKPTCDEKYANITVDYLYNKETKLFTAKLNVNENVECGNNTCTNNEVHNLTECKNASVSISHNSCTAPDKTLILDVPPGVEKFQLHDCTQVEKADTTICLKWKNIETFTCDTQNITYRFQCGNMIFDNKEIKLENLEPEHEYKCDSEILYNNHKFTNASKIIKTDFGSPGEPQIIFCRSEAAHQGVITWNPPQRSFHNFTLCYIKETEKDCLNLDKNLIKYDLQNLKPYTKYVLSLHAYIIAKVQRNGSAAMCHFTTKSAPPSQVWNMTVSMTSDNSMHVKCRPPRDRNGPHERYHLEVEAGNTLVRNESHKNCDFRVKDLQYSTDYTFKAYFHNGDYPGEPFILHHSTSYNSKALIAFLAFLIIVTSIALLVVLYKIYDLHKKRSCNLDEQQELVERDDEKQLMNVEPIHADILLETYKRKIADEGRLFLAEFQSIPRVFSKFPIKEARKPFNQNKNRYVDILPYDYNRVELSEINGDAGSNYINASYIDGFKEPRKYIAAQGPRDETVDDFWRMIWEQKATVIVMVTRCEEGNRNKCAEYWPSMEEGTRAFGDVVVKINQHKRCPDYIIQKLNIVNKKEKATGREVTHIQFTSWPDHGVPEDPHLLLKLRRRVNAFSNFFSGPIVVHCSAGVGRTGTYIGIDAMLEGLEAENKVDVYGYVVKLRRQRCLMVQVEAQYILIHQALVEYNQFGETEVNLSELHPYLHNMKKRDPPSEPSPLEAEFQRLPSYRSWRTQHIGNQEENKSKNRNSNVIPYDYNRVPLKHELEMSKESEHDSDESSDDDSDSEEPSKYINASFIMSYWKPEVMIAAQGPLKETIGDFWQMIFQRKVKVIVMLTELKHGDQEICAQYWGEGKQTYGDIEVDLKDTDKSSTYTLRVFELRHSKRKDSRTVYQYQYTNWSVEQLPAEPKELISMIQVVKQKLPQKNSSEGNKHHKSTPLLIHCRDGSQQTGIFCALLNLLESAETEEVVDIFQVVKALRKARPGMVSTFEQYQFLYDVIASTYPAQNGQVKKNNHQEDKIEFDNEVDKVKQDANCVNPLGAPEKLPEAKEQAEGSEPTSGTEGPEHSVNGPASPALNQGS

Measured: IC50

[H]/N=C(/N)N[C@H]1[C@H](O)[C@@H](O)[C@H](O[C@@H]2O[C@@H](C)[C@](O)(C=O)[C@H]2O[C@@H]2O[C@@H](CO)[C@H](O)[C@@H](O)[C@@H]2NC)[C@@H](N/C(N)=N\[H])[C@@H]1O [STREPTOMYCIN]
Not Active: all assays above

COc1cc(NS(=O)(=O)c2ccc(N)cc2)nc(OC)n1 [SULFADIMETHOXINE]
Not Active: all assays above

Cc1cc(C)nc(NS(=O)(=O)c2ccc(N)cc2)n1 [SULFAMETHAZINE]
Not Active: all assays above

C[C@]1(Cn2ccnn2)[C@H](C(=O)O)N2C(=O)C[C@H]2S1(=O)=O [TAZOBACTAM]
Not Active: all assays above

CN1C(C(=O)Nc2ccccn2)=C(O)c2sccc2S1(=O)=O [TENOXICAM]
Not Active: all assays above

O=C1CCC(N2C(=O)c3ccccc3C2=O)C(=O)N1 (centres undefined) [THALIDOMIDE]
Not Active: all assays above

Cc1cccc(Nc2ccncc2S(=O)(=O)NC(=O)NC(C)C)c1 [TORSEMIDE]
Not Active: all assays above

CC(C)C[C@H](NC(=O)[C@@H](O)[C@H](N)Cc1ccccc1)C(=O)O [UBENIMEX]
Not Active: all assays above

Cc1onc(-c2ccccc2)c1-c1ccc(S(N)(=O)=O)cc1 [VALDECOXIB]
Not Active: all assays above

CC[C@]1(O)C[C@@H]2CN(CCc3c([nH]c4ccccc34)[C@@](C(=O)OC)(c3cc4c(cc3OC)N(C)[C@H]3[C@@](O)(C(=O)OC)[C@H](OC(C)=O)[C@]5(CC)C=CCN6CC[C@]43[C@@H]65)C2)C1 [VINBLASTINE]
Not Active: all assays above

CC(=O)CC(c1ccccc1)c1c(O)c2ccccc2oc1=O (centres undefined) [WARFARIN]
Not Active: all assays above

C[C@@H](N)[C@H]1CC[C@H](C(=O)Nc2ccncc2)CC1 [Y-27632]
Not Active: all assays above

[Cl-].[Cl-].[Zn+2] [ZINC CHLORIDE]
Not Active: all assays above

Reference: ChEMBL document CHEMBL1909046, “DrugMatrix in vitro pharmacology data”
